Test results from ChEMBL document CHEMBL1201862, “PubChem BioAssay data set” (2004).
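Cells were grown in 96-well plates and exposed to each compound for 48 hours at five concentrations; endpoints were interpolated linearly between bracketing concentrations, or set to the highest concentration if not reached. GI50 is the concentration that inhibits growth by half.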 The source made the active and inactive calls. No stated cut-off is given here; in the data, active = GI50 up to about 1.1 µM and inactive = higher.

Tests used:
Assay in all cases: NCI anticancer screen, dose series, 48 h
UO-31 = tested on: UO-31
SR = tested on: SR
SK-MEL-5 = tested on: SK-MEL-5
T47D = tested on: T47D
MOLT-4 = tested on: MOLT-4
HL-60 = tested on: HL-60
HOP-92 = tested on: HOP-92
MDA-MB-435 = tested on: MDA-MB-435
RXF 393 = tested on: RXF 393
UACC-62 = tested on: UACC-62
DU-145 = tested on: DU-145
HCT-116 = tested on: HCT-116
COLO 205 = tested on: COLO 205
OVCAR-8 = tested on: OVCAR-8
CAKI-1 = tested on: CAKI-1
SK-MEL-28 = tested on: SK-MEL-28
NCI/ADR-RES = tested on: NCI/ADR-RES
HCT-15 = tested on: HCT-15
BT-549 = tested on: BT-549
SNB-19 = tested on: SNB-19
PC-3 = tested on: PC-3
MDA-MB-231 = tested on: MDA-MB-231
786-0 = tested on: 786-0
ACHN = tested on: ACHN
A498 = tested on: A498
K562 = tested on: K562
HOP-62 = tested on: HOP-62
HCC 2998 = tested on: HCC 2998
LOX IMVI = tested on: LOX IMVI
KM12 = tested on: KM12
OVCAR-4 = tested on: OVCAR-4
TK-10 = tested on: TK-10
SK-MEL-2 = tested on: SK-MEL-2
SK-OV-3 = tested on: SK-OV-3
CCRF-CEM = tested on: CCRF-CEM
NCI-H522 = tested on: NCI-H522
NCI-H23 = tested on: NCI-H23
Hs-578T = tested on: Hs-578T
NCI-H226 = tested on: NCI-H226
SN12C = tested on: SN12C
NCI-H460 = tested on: NCI-H460
MDA-N = tested on: MDA-N
SNB-75 = tested on: SNB-75
OVCAR-5 = tested on: OVCAR-5
SF-539 = tested on: SF-539
SW-620 = tested on: SW-620
MCF7 = tested on: MCF7
HT-29 = tested on: HT-29
RPMI-8226 = tested on: RPMI-8226
U-251 = tested on: U-251
EKVX = tested on: EKVX
IGROV-1 = tested on: IGROV-1
A549 = tested on: A549
M14 = tested on: M14
SF-268 = tested on: SF-268
SF-295 = tested on: SF-295
UACC-257 = tested on: UACC-257
OVCAR-3 = tested on: OVCAR-3
Malme-3M = tested on: Malme-3M

## Cc1nc2c(-c3ccccc3)[nH]c(C)c2c(=O)o1
UO-31
  GI50: 4.94 µM (inactive)
SR
  GI50: > 100 µM (inactive)
SK-MEL-5
  GI50: 13.1 µM (inactive)
T47D
  GI50: 44.2 µM (inactive)
MOLT-4
  GI50: 52.5 µM (inactive)
HL-60
  GI50: 15.7 µM (inactive)
HOP-92
  GI50: > 100 µM (inactive)
MDA-MB-435
  GI50: 46.2 µM (inactive)
RXF 393
  GI50: 35.9 µM (inactive)
UACC-62
  GI50: 23.9 µM (inactive)
DU-145
  GI50: 76.2 µM (inactive)
HCT-116
  GI50: 45.6 µM (inactive)
COLO 205
  GI50: 58.3 µM (inactive)
OVCAR-8
  GI50: 41.5 µM (inactive)
CAKI-1
  GI50: 37.2 µM (inactive)
SK-MEL-28
  GI50: > 100 µM (inactive)
NCI/ADR-RES
  GI50: > 100 µM (inactive)
HCT-15
  GI50: 30.8 µM
BT-549
  GI50: 24.8 µM (inactive)
SNB-19
  GI50: > 100 µM (inactive)
PC-3
  GI50: > 100 µM (inactive)
MDA-MB-231
  GI50: 31.2 µM (inactive)
786-0
  GI50: 61.8 µM (inactive)
ACHN
  GI50: 43.8 µM (inactive)
A498
  GI50: 22.1 µM (inactive)
K562
  GI50: 40.1 µM (inactive)
HOP-62
  GI50: 33.3 µM (inactive)
HCC 2998
  GI50: 57.5 µM (inactive)
LOX IMVI
  GI50: 42.5 µM (inactive)
KM12
  GI50: > 100 µM (inactive)
OVCAR-4
  GI50: 70.1 µM (inactive)
TK-10
  GI50: > 100 µM (inactive)
SK-MEL-2
  GI50: 46.7 µM (inactive)
SK-OV-3
  GI50: 49.9 µM (inactive)
CCRF-CEM
  GI50: > 100 µM (inactive)
NCI-H522
  GI50: 19.7 µM (inactive)
NCI-H23
  GI50: 57.7 µM (inactive)
Hs-578T
  GI50: > 100 µM (inactive)
NCI-H226
  GI50: 87.5 µM (inactive)
SN12C
  GI50: > 100 µM (inactive)
NCI-H460
  GI50: > 100 µM (inactive)
MDA-N
  GI50: 45.6 µM (inactive)
SNB-75
  GI50: 23.9 µM (inactive)
OVCAR-5
  GI50: > 100 µM (inactive)
SF-539
  GI50: 56.5 µM (inactive)
SW-620
  GI50: > 100 µM (inactive)
MCF7
  GI50: 1.39 µM (inactive)
HT-29
  GI50: 39.4 µM (inactive)
RPMI-8226
  GI50: 32.7 µM (inactive)
U-251
  GI50: 34.9 µM (inactive)
EKVX
  GI50: > 100 µM (inactive)
IGROV-1
  GI50: 80.5 µM (inactive)
A549
  GI50: 65.2 µM (inactive)
M14
  GI50: 53.1 µM (inactive)
SF-268
  GI50: 15.5 µM (inactive)
SF-295
  GI50: 79.6 µM (inactive)
UACC-257
  GI50: > 100 µM (inactive)

## CC(NC(=O)/C(=C/c1ccccc1)NC(=O)c1ccccc1)C(=O)O (configuration not stated)
UO-31
  GI50: 91.4 µM (inactive)
SR
  GI50: 37.6 µM (inactive)
SK-MEL-5
  GI50: > 100 µM (inactive)
T47D
  GI50: 29.6 µM (inactive)
MOLT-4
  GI50: > 100 µM (inactive)
HL-60
  GI50: 77.1 µM (inactive)
HOP-92
  GI50: 33.1 µM (inactive)
MDA-MB-435
  GI50: 38.8 µM (inactive)
RXF 393
  GI50: > 100 µM (inactive)
UACC-62
  GI50: 57 µM (inactive)
DU-145
  GI50: > 100 µM (inactive)
HCT-116
  GI50: 91.2 µM (inactive)
COLO 205
  GI50: > 100 µM (inactive)
OVCAR-8
  GI50: 50 µM (inactive)
CAKI-1
  GI50: 29.7 µM (inactive)
SK-MEL-28
  GI50: > 100 µM (inactive)
NCI/ADR-RES
  GI50: 40.5 µM (inactive)
HCT-15
  GI50: 87.9 µM
BT-549
  GI50: > 100 µM (inactive)
OVCAR-3
  GI50: > 100 µM (inactive)
SNB-19
  GI50: 77.1 µM (inactive)
PC-3
  GI50: > 100 µM (inactive)
MDA-MB-231
  GI50: 36.5 µM (inactive)
786-0
  GI50: 39.5 µM (inactive)
ACHN
  GI50: 38.6 µM (inactive)
A498
  GI50: > 100 µM (inactive)
K562
  GI50: > 100 µM (inactive)
HOP-62
  GI50: > 100 µM (inactive)
HCC 2998
  GI50: > 100 µM (inactive)
LOX IMVI
  GI50: 25.2 µM (inactive)
KM12
  GI50: 6.59 µM (inactive)
SK-MEL-2
  GI50: > 100 µM (inactive)
SK-OV-3
  GI50: 87.3 µM (inactive)
CCRF-CEM
  GI50: > 100 µM (inactive)
Malme-3M
  GI50: > 100 µM (inactive)
NCI-H522
  GI50: > 100 µM (inactive)
NCI-H23
  GI50: 47.4 µM (inactive)
Hs-578T
  GI50: 88.3 µM (inactive)
NCI-H226
  GI50: 26.1 µM (inactive)
SN12C
  GI50: 92.3 µM (inactive)
NCI-H460
  GI50: > 100 µM (inactive)
MDA-N
  GI50: 55.8 µM (inactive)
SNB-75
  GI50: 24.1 µM (inactive)
OVCAR-5
  GI50: > 100 µM (inactive)
SF-539
  GI50: 20.6 µM (inactive)
SW-620
  GI50: > 100 µM (inactive)
MCF7
  GI50: 54.2 µM (inactive)
HT-29
  GI50: > 100 µM (inactive)
RPMI-8226
  GI50: > 100 µM (inactive)
U-251
  GI50: 34 µM (inactive)
EKVX
  GI50: 40.4 µM (inactive)
IGROV-1
  GI50: 21.3 µM (inactive)
A549
  GI50: > 100 µM (inactive)
M14
  GI50: > 100 µM (inactive)
SF-268
  GI50: > 100 µM (inactive)
SF-295
  GI50: 96.4 µM (inactive)
UACC-257
  GI50: > 100 µM (inactive)

## O=C1CCSc2nc(-c3ccc4c(c3)OCO4)nn21
SR
  GI50: > 10 µM (inactive)
SK-MEL-5
  GI50: > 10 µM (inactive)
T47D
  GI50: > 10 µM (inactive)
MOLT-4
  GI50: > 10 µM (inactive)
HL-60
  GI50: > 10 µM (inactive)
HOP-92
  GI50: > 10 µM (inactive)
MDA-MB-435
  GI50: > 10 µM (inactive)
RXF 393
  GI50: > 10 µM (inactive)
UACC-62
  GI50: > 10 µM (inactive)
DU-145
  GI50: > 10 µM (inactive)
HCT-116
  GI50: > 10 µM (inactive)
COLO 205
  GI50: > 10 µM (inactive)
OVCAR-8
  GI50: > 10 µM (inactive)
CAKI-1
  GI50: > 10 µM (inactive)
SK-MEL-28
  GI50: > 10 µM (inactive)
NCI/ADR-RES
  GI50: > 10 µM (inactive)
HCT-15
  GI50: > 10 µM
BT-549
  GI50: > 10 µM (inactive)
OVCAR-3
  GI50: > 10 µM (inactive)
SNB-19
  GI50: > 10 µM (inactive)
PC-3
  GI50: > 10 µM (inactive)
MDA-MB-231
  GI50: > 10 µM (inactive)
786-0
  GI50: > 10 µM (inactive)
ACHN
  GI50: > 10 µM (inactive)
A498
  GI50: > 10 µM (inactive)
K562
  GI50: > 10 µM (inactive)
HOP-62
  GI50: > 10 µM (inactive)
HCC 2998
  GI50: > 10 µM (inactive)
LOX IMVI
  GI50: > 10 µM (inactive)
KM12
  GI50: > 10 µM (inactive)
OVCAR-4
  GI50: > 10 µM (inactive)
TK-10
  GI50: > 10 µM (inactive)
SK-MEL-2
  GI50: > 10 µM (inactive)
SK-OV-3
  GI50: > 10 µM (inactive)
CCRF-CEM
  GI50: > 10 µM (inactive)
Malme-3M
  GI50: > 10 µM (inactive)
NCI-H522
  GI50: > 10 µM (inactive)
NCI-H23
  GI50: > 10 µM (inactive)
Hs-578T
  GI50: > 10 µM (inactive)
NCI-H226
  GI50: > 10 µM (inactive)
SN12C
  GI50: > 10 µM (inactive)
NCI-H460
  GI50: > 10 µM (inactive)
MDA-N
  GI50: > 10 µM (inactive)
SNB-75
  GI50: > 10 µM (inactive)
OVCAR-5
  GI50: > 10 µM (inactive)
SF-539
  GI50: > 10 µM (inactive)
SW-620
  GI50: > 10 µM (inactive)
MCF7
  GI50: > 10 µM (inactive)
HT-29
  GI50: > 10 µM (inactive)
RPMI-8226
  GI50: > 10 µM (inactive)
U-251
  GI50: > 10 µM (inactive)
EKVX
  GI50: > 10 µM (inactive)
IGROV-1
  GI50: > 10 µM (inactive)
A549
  GI50: > 10 µM (inactive)
M14
  GI50: > 10 µM (inactive)
SF-268
  GI50: > 10 µM (inactive)
SF-295
  GI50: > 10 µM (inactive)
UACC-257
  GI50: > 10 µM (inactive)
